Measured values: US20140038181A1, “CHEMICALLY SUBSTITUTED THERMOSENSITIVE PROBES AND COFACTORS FOR HOT START LIGATION” (TRILINK BIOTECHNOLOGIES, priority 2011, published 2014)

Assay: Thermal conversion of 2′,3′-substituted ATP to unsubstituted ATP in ligase buffer at 95° C. (HPLC)
Format: physicochemical
Conditions: for Concentration of unsubstituted ATP: 1 mM 2′,3′-substituted ATP
Description: The reactions were monitored by analysis of the aliquot of incubated mixture by reverse-phase and anion-exchange HPLC.

## CC(C)(C)OCCO[C@@H]1[C@H](OCCOC(C)(C)C)[C@@H](COP(=O)(O)OP(=O)(O)OP(=O)(O)O)O[C@H]1n1cnc2c(N)ncnc21 [2′,3′-TBE-substituted ATP, 2′,3′-O-bis-[2-(tert-butoxy)]ethyl-adenosine-5′-triphosphate]
Ligase buffer pH 7.5, 5 min
  Concentration of unsubstituted ATP: 569 µM
Ligase buffer pH 7.5, 10 min
  Concentration of unsubstituted ATP: 857 µM
Ligase buffer pH 7.5, 20 min
  Concentration of unsubstituted ATP: 970 µM
2 min, ligation buffer
  cofactor molecules converted to the unmodified ATP: about 20%
20 min, ligation buffer
  conversion to unmodified ATP: more than 85%
